Assay results taken from patent US9540373B2, “Substituted spirocycles” (Boehringer Ingelheim International GmbH, priority 2014, dated 2017).
Read-outs that look alike come from different tables or passages of the source.

Assays:
[1] = biological target: recombinant human DPPI (Cathepsin C) (Homo sapiens (Human), UniProt P53634); assay: Inhibition of human DPPI (Cathepsin C); assay type: biochemical
Description: Inhibition of Human DPPI (Cathepsin C)
The analysis of the data was performed by calculating the percentage of fluorescence in the presence of test compound in comparison to the fluorescence of the vehicle control after 20 subtracting the background fluorescence using the following formula: (RFU(sample)−RFU(background))*100/(RFU(control)−RFU(background))
Data from these calculations were used to generate IC50 values for inhibition of DPPI, respectively.

[2] = test system: neutrophil elastase activity in U937 cells; assay: Determination of neutrophil elastase activity in U937 cytosolic lysate preparation after incubation with test compound; assay type: cell-based; conditions: Homo sapiens, U-937; U937 cells incubated 48 hours with compound, NE activity in lysate; read-out: Reduction of NE-activity in U937 cells IC50
Description: Determination of Neutrophil Elastase Activity in U937 Cytosolic Lysate Preparation after Incubation with Test Compound Materials:
24 well Nunclon cell culture plates (No. 142475) and 96 well plates (No. 267245) were from Nunc.
Dimethylsulfoxid (DMSO) was from Sigma (Prod. No. D8418). Nonidet-P40 (NP40) was from USBiological (Prod. No. N3500)
Substrate, specific for Neutrophil elastase, was from Bachem (MeOSuc-Ala-Ala-Pro-Val-AMC; Prod. No. I-1270).
Human neutrophil elastase was from Calbiochem (Prod. No. 324681)
Tris-buffer (100 mM Tris; 1M NaCl; pH 7.5)
Tris-buffer+HSA 0.1%; Human Serum Albumin from Calbiochem (Cat#. 126658)
Serine-protease buffer (20 mM Tris; 100 mM NaCl; pH 7.5)+0.1% HSA
Serine protease lysis buffer: 20 mM Tris-HCl; 100 mM NaCl pH 7.5; +0.2% Nonidet-P40;
PBS: phosphate buffered saline, without Ca and Mg, from Gibco
U937 from ECACC (Cat. No. 85011440) cultured in suspension at 37° C. and 5% CO2.
Cell density: 0.2-1 Mio. Cells/ml.
Medium: RPMI1640 GlutaMAX (No. 61870) with 10% FCS from Gibco
Cell Seeding and Treatment:
Compounds in 100% DMSO were diluted in Medium (−FCS) with 10% DMSO and further diluted according to the experiment planned.
20 μl of the compound solution was transferred in the respective wells of the 24 well plate and diluted with 2 ml cell suspension/well containing 1×10^5 cells/ml (final concentration of DMSO=0.1%). Compound dilution factor=100
Compounds (up to 7 concentrations) were tested in triplicates with 3 wells for the DMSO 0.1% control, incubated for 48 hours without medium change at 37° C., 5% CO2 and 95% relative humidity.
Cell Harvesting and Cell Lysate:
Transfer the cell suspension in 2 ml 96 well assay block. Separate cells from medium by centrifugation (500×g; 10 min; RT); discard the supernatant. Resuspend in 1 ml PBS; centrifugation (500×g; 10 min; RT); wash cells twice with PBS. Add 80 μl Serine protease lysis buffer (ice cold) to the cell pellet; resuspend the pellet and store on ice for 10 minutes. Remove debris by centrifugation at 1000×g for 10 min at 4° C. Transfer 80-100 μl lysate supernatant in 96 well plate and store immediately at −80° C.
Neutrophil Elastase Activity Assay:
Frozen lysates were thaw at 37° C. for 10 minutes and stored on ice. Protein content was determined with Bradford protein assay. Lysates were diluted to 0.2-0.5 mg/ml protein in serine protease buffer+HSA.
Standard: NE (100 μg/ml stock solution in Tris-buffer; stored at −80° C.) was diluted in Tris-buffer+HSA to 750 ng/ml, and further serially diluted 1:2 for the standard curve. Buffer, blank, standard and lysate samples were transferred into 384 well plate
Blank: 5 μl Tris-buffer+10 μl Serine protease buffer+5 μl Substrate
Standard: 5 μl Tris-buffer+10 μl NE (diff. conc.)+5 μl Substrate
Lysate: 5 μl Tris-buffer+10 μl Lysat+5 μl Substrate
The increase in fluorescence (Ex360 nm/Em 460 nm) is determined after 30 minutes with a Molecular Device Spectramax M5 Fluorescence Reader. The result is interpolated to ng/mg lysate protein using excel formula functions. Percent inhibition in the compound-treated lysate samples is calculated relative to the DMSO-treated control-sample (100−(compound-sample*100)/control-sample)
A test compound will give values between 0% and 100% inhibition of neutrophil elastase. IC50 is calculated using Graphpad Prism; nonlinear fitting (log(inhibitor) vs. response—Variable slope). The IC50 value is interpolated as the concentration of test compound which leads to a neutrophil elastase activity reduction of 50% (relative to the DMSO-treated control).

[3] = Determination of metabolic stability with human liver microsomes; assay type: in vitro ADME; conditions: pH 7.6; pooled human liver microsomes, 1 mg/ml protein, 1 μM compound, 37° C., NADPH; read-out: In vitro stability in human liver microsome incubations t1/2
Description: Determination of Metabolic Stability with Human Liver Microsomes
The metabolic degradation of the test compound is assayed at 37° C. with pooled human liver microsomes. The final incubation volume of 100 μl per time point contains TRIS buffer pH 7.6 (0.1 M), magnesium chloride (5 mM), microsomal protein (1 mg/ml) and the test compound at a final concentration of 1 μM. Following a short preincubation period at 37° C., the reactions are initiated by addition of beta-nicotinamide adenine dinucleotide phosphate, reduced form (NADPH, 1 mM) and terminated by transferring an aliquot into acetonitrile after different time points. Additionally, the NADPH-independent degradation is monitored in incubations without NADPH, terminated at the last time point. The [%] remaining test compound after NADPH independent incubation is reflected by the parameter c (control) (metabolic stability). The quenched incubations are pelleted by centrifugation (10′000 g, 5 min.) An aliquot of the supernatant is assayed by LC-MS/MS for the amount of parent compound.
The half-life (t1/2 INVITRO) is determined by the slope of the semilogarithmic plot of the concentration-time profile. The intrinsic clearance (CL_INTRINSIC) is calculated by considering the amount of protein in the incubation: CL_INTRINSIC [μl/min/mg protein]=(ln 2/(half-life [min]*protein content [mg/ml]))*1′000.

[4] = recombinant human DPPI, substrate Gly-Arg-AMC, pH 6.0, read-out: Inhibition of DPPI IC50
[5] = Table 14, compounds examined in X-ray crystallography, read-out: CatC IC50

Sequence of recombinant human DPPI (Cathepsin C) (P53634 231-394): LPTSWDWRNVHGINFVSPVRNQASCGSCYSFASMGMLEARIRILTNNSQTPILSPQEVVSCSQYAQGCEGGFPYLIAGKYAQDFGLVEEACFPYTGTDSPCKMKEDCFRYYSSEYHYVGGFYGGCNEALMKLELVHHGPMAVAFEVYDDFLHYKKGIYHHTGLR
Sequence of recombinant human DPPI (Cathepsin C) (P53634 25-134): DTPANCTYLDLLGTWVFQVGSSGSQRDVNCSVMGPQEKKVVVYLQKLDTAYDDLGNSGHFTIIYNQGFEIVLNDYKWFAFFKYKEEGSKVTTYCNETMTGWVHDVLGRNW
Sequence of recombinant human DPPI (Cathepsin C) (P53634 395-463): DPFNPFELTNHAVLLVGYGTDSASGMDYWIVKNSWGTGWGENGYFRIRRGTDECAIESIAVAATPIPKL

| IC50 [1, 5] [nM] | SMILES | IC50 [1, 4] [nM] | IC50 [2] [nM] | half-life at 1 μM [3] [h] |
| --- | --- | --- | --- | --- |
| – | CN1CCC2(CC1)C(=O)Nc1ccc(-c3ccc(C[C@@H](C#N)NC(=O)[C@H]4N[C@@H]5CC[C@H]4C5)c(F)c3)cc12 [Example 6] | 0.2 | 22.2 | 1.83 |
| – | CN1CCC2(C1)OC(=O)c1ccc(-c3ccc(C[C@@H](C#N)NC(=O)[C@H]4N[C@@H]5CC[C@H]4C5)c(F)c3)cc12 (some centres unmarked) [Example 10] | 0.6 | 1.4 | > 2.17 |
| – | N#C[C@H](Cc1ccc(-c2cc3c(cn2)C(=O)OC32CCN(C3COC3)CC2)cc1F)NC(=O)[C@H]1N[C@@H]2CC[C@H]1C2 [Example 22] | 4.8 | 15.7 | > 2.17 |
| – | CN1C(=O)C2(CCNCC2)c2cc(-c3ccc(C[C@@H](C#N)NC(=O)[C@H]4N[C@@H]5CC[C@H]4C5)c(F)c3)ccc21 [Example 4] | 0.4 | 91 | > 2.17 |
| – | CN1CCC2(CC1)OC(=O)c1ncc(-c3ccc(C[C@@H](C#N)NC(=O)[C@H]4N[C@@H]5CC[C@H]4C5)c(F)c3)cc12 [Example 21] | 1.4 | 63.7 | > 2.17 |
| – | N#C[C@H](Cc1ccc(-c2ccc3c(c2)C2(CCNC2)OC3=O)cc1F)NC(=O)[C@H]1N[C@@H]2CC[C@H]1C2 (some centres unmarked) [Example 9] | 0.5 | 21.5 | > 2.17 |
| – | N#C[C@H](Cc1ccc(-c2ccc3c(c2)C2(CCNCC2)OC3)cc1F)NC(=O)[C@H]1N[C@@H]2CC[C@H]1C2 [Example 13] | 0.6 | 16.7 | > 2.17 |
| – | N#C[C@H](Cc1ccc(-c2cc3c(cn2)C(=O)OC32CCNCC2)cc1F)NC(=O)[C@H]1N[C@@H]2CC[C@H]1C2 [Example 18] | 1.6 | 220 | > 2.17 |
| – | CN1CCC2(C1)OC(=O)c1cnc(-c3ccc(C[C@@H](C#N)NC(=O)[C@H]4N[C@@H]5CC[C@H]4C5)c(F)c3)cc12 (some centres unmarked) [Example 20] | 1.6 | 23.2 | > 2.17 |
| – | CN1CCC2(CC1)OC(=O)c1cnc(-c3ccc(C[C@@H](C#N)NC(=O)[C@H]4N[C@@H]5CC[C@H]4C5)c(F)c3)cc12 [Example 19] | 1 | 5 | > 2.17 |
| – | CN1CC2(C1)OC(=O)c1ccc(-c3ccc(C[C@@H](C#N)NC(=O)[C@H]4N[C@@H]5CC[C@H]4C5)c(F)c3)cc12 [Example 12] | 0.5 | 1.2 | 0.767 |
| – | N#C[C@H](Cc1ccc(-c2ccc3c(c2)C2(CCN(C4COC4)CC2)OC3)cc1F)NC(=O)C12CCC(CC1)CN2 [Example 27, N-[(1S)-1-cyano-2-[2-fluoro-4-[1′-(oxetan-3-yl)spiro[1H-isobenzofuran-3,4′-piperidine]-5-yl]phenyl]ethyl]-3-azabicyclo[2.2.2]octane-4-carboxamide] | 2.9 | 0.7 | 2 |
| – | N#C[C@H](Cc1ccc(-c2ccc3c(c2)C2(CCNCC2)C(=O)N3)cc1F)NC(=O)[C@H]1N[C@@H]2CC[C@H]1C2 [Example 3] | 0.3 | 503 | > 2.17 |
| – | CN1CCC2(CC1)OC(=O)c1ccc(-c3ccc(C[C@@H](C#N)NC(=O)[C@H]4N[C@@H]5CC[C@H]4C5)c(F)c3)cc12 [Example 8] | 0.7 | 0.8 | 1.23 |
| – | CN1CCC2(CC1)OCc1ccc(-c3ccc(C[C@@H](C#N)NC(=O)[C@H]4N[C@@H]5CC[C@H]4C5)c(F)c3)cc12 [Example 14] | 1 | 1.1 | > 2.17 |
| – | CN1CCCC2(C1)C(=O)N(C)c1ccc(-c3ccc(C[C@@H](C#N)NC(=O)[C@H]4N[C@@H]5CC[C@H]4C5)c(F)c3)cc12 (some centres unmarked) [Example 17] | 1.6 | 0.6 | 1 |
| – | N#C[C@H](Cc1ccc(-c2ccc3c(c2)C2(CCNCC2)OC3=O)cc1F)NC(=O)[C@H]1N[C@@H]2CC[C@H]1C2 [Example 7] | 0.5 | 34.9 | > 2.17 |
| – | N#C[C@H](Cc1ccc(-c2ccc3c(c2)C2(CCNCC2)CC3)cc1F)NC(=O)[C@H]1N[C@@H]2CC[C@H]1C2 [Example 2] | 0.6 | 6.8 | > 2.17 |
| – | CN1CCC2(CC1)C(=O)N(C)c1ccc(-c3ccc(C[C@@H](C#N)NC(=O)[C@H]4N[C@@H]5CC[C@H]4C5)c(F)c3)cc12 [Example 5] | 0.6 | 2.3 | > 2.17 |
| 0.7 | N#C[C@H](Cc1ccc(-c2ccc3c(c2)C2(CNC2)OC3=O)cc1F)NC(=O)[C@H]1N[C@@H]2CC[C@H]1C2 [Example 11] | 0.7 | 10.7 | > 2.17 |
| 0.5 | N#C[C@H](Cc1ccc(-c2ccc3c(c2)C2(CCNC2)C(=O)N3)cc1F)NC(=O)[C@H]1N[C@@H]2CC[C@H]1C2 (some centres unmarked) [Example 16] | 0.5 | 73.8 | > 2.17 |
| – | CN1CCC2(CCc3ccc(-c4ccc(C[C@@H](C#N)NC(=O)[C@H]5N[C@@H]6CC[C@H]5C6)c(F)c4)cc32)CC1 [Example 15] | 0.5 | 0.2 | > 2.17 |
| – | N#C[C@H](Cc1ccc(-c2ccc3c(n2)C2(CCN(C4COC4)CC2)OC3=O)cc1F)NC(=O)[C@H]1N[C@@H]2CC[C@H]1C2 [Example 24] | 2.7 | 6 | > 2.17 |
| – | CN1CCC2(CC1)OCc1cnc(-c3ccc(C[C@@H](C#N)NC(=O)[C@H]4N[C@@H]5CC[C@H]4C5)c(F)c3)cc12 [Example 26, (1S,2S,4R)—N-[(1S)-1-cyano-2-[2-fluoro-4-(1′-methylspiro[3H-furo[3,4-c]pyridine-1,4′-piperidine]-6-yl)phenyl]ethyl]-3-azabicyclo[2.2.1]heptane-2-carboxamide] | 2 | 4.6 | 0.917 |
